{"source": "patent US7994113B2", "about": "“βGBP, compositions comprising βGBP, and related methods and uses thereof” (priority 2007, dated 2011)", "key": {"activated T cells": {"test_system": "activated T cells", "settings": "Rabinovich et al., 1997, 1998, 1999; cited from earlier work"}, "SW480 colon cancer cells": {"test_system": "SW480 colon cancer cells", "experiment": "Growth rate of SW480 colon cancer cells with Hu-r-βGBP", "format": "cell-based", "experimental": "(§1) To confirm these observations three colon cancer cell lines were investigated, SW480, SW620 and LoVo. Cells were grown in culture and incubated with βGBP at varying concentrations. […] Concentrations as low as 1-2 nM have been observed as effective in inducing apoptosis (FIG. 6). It is possible that in some circumstances even lower concentrations of βGBP may be effective.\n(§2) Cell culture: SW480, SW620 and LoVo colon cancer cells were grown in Leibowitz L-15 medium with 10% fetal bovine serum in sealed flasks at 37° C. Hu-r-βGBP was added 3 hrs after seeding cells at a concentration of 1 nM or 2 nM. Control cells were grown without βGBP.\n(§3) Growth rates: Cell numbers were measured over a time course of 5 days. Cell numbers were assessed at 0, 1, 2, 3, 4, and 5 days for each cell type incubated in the presence of Hu-r-βGBP. Cell numbers were assessed in triplicate by counting in a haemocytometer as discussed above in Example 1 and compared with cell numbers for control cells grown without βGBP."}, "[1]": {"test_system": "breast cancer, ovarian cancer, oral cancer, prostate cancer and leukaemia cells", "experiment": "Screen of pro-apoptotic responses to βGBP in a range of cancer types", "format": "cell-based", "experimental": "As described above βGBP is known to inhibit growth and/or promote apoptosis in cells from a range of cancer types.\nIn breast cancer, ovarian cancer, oral cancer, prostate cancer and leukaemia cells tested for pro-apoptotic responses to βGBP, the effective dose in cell culture was 15-30 nM."}, "SW620 colon cancer cells": {"test_system": "SW620 colon cancer cells", "experiment": "Growth rate of SW620 colon cancer cells with Hu-r-βGBP", "format": "cell-based", "experimental": "as §1, §2, §3"}, "[2]": {"test_system": "ST4 (Human malignant T cell leukaemia) cells", "experiment": "ST4 tumour growth in SCID mice, subcutaneous βGBP", "format": "in vivo", "settings": "SCID mice injected s.c. with 5×10^6 ST4 cells; Hu-r-βGBP s.c. day 1 to day 16", "experimental": "5×10^6 ST4 (Human malignant T cell leukaemia) cells were injected subcutaneously at day 0. Hu-r-βGBP was administered from day 1 to day 16 by subcutaneous injection.\nFemale SCID mice were housed under standard conditions. Mice were divided into four groups of four. At age 6 weeks 5×10^6 ST4 (Human malignant T cell leukaemia) cells were injected subcutaneously (day 0).\nHu-r-βGBP was obtained as described in Example 1.\nβGBP was administered from day 1 to day 16 by individual daily subcutaneous injection. Each group of mice received a different dosage of βGBP. 0 ng/mouse (control), 20 ng/mouse, 200 ng/mouse or 400 ng/mouse\nTumour size was assessed at day 42 or day 90 by calliper measurement."}, "MCF-7^CTx cells": {"test_system": "MCF-7^CTx cells", "format": "cell-based"}, "MCF10A^CTx cells": {"test_system": "MCF10A^CTx cells", "format": "cell-based"}, "MCF10A^V12Ras cells": {"test_system": "MCF10A^V12Ras cells", "experiment": "Growth rate and Annexin V apoptosis of MCF10A^V12Ras cells", "format": "cell-based", "settings": "Hu-r-βGBP 15 or 30 nM added at hour 3"}, "[3]": {"test_system": "BT474 breast cancer cells", "experiment": "Growth rate and apoptosis of BT474 cells treated with Hu-r-βGBP", "format": "cell-based", "settings": "Hu-r-βGBP 15 or 30 nM added at hour 3 after seeding", "experimental": "(§4) Cell culture: BT474 cells were cultured in DMEM/F12 medium with 10% fetal calf serum (FCS) (Invitrogen, UK) and 20 μg/ml insulin (Sigma, UK); the SKBR3 cells were grown in DMEM medium (Invitrogen UK) plus 10% FCS. Cultures were incubated at 37° C. in a humidified atmosphere of 5% CO2 in air.\n(§5) 1×10^5 cells were seeded per 25 cm^2 flask, or 3×10^5 per 75 cm^2 flask. Sufficient numbers of flasks were seeded in parallel to allow for individual flasks to be consumed in the process of monitoring cell numbers (i.e. growth rates), apoptosis, PI3K activity, akt mRNA levels, Akt protein levels and phosphorylated Akt (P-Akt) protein levels as discussed below. Unless otherwise indicated results correspond to one flask of cells.\n(§6) Growth rates: Cells were removed from the flasks by trypsinisation and counted in a haemocytometer to assess cell numbers at time points of 1, 2, 3, 4, and 5 days for BT474 cells, SKBR3 cells, MCF10A^V12Ras cells and MCF10A^CTx cells. MCF10A cells were monitored at 1, 2, 3, and 4 days. Cell numbers were determined in triplicate. […]\n(§7) Cytofluorimetry: Apoptosis was monitored using four criteria as outlined below. […]\n(§8) Redistribution of plasma membrane phosphatidylserine was assessed using Annexin V-FITC (Pharmingen, San Diego, Calif.). […]\n(§9) Caspase 3 activity was measured by cleavage of non fluorescent PhiPhiLux to a fluorescent product (OncoImmunin, Mass.). […]"}, "LoVo colon cancer cells": {"test_system": "LoVo colon cancer cells", "experiment": "Growth rate of LoVo colon cancer cells with Hu-r-βGBP", "format": "cell-based", "experimental": "as §1, §2, §3"}, "class IA PI3K": {"test_system": "class IA PI3K", "experiment": "PI3 kinase assay: immunoprecipitated enzyme from treated cells, PIP3 by competitive ELISA", "format": "cell-based", "settings": "for PI3K activity: 30 nM Hu-r-βGBP"}, "akt mRNA": {"test_system": "akt mRNA", "experiment": "Northern blot analysis of akt mRNA", "format": "cell-based", "settings": "for akt mRNA level: 30 nM Hu-r-βGBP"}, "Akt": {"test_system": "Akt", "experiment": "Western blot of phosphorylated (Ser473) Akt and total Akt protein", "format": "cell-based", "settings": "30 nM Hu-r-βGBP", "experimental": "Western blot analysis: Cells were lysed in 50 mM Tris pH7.4. 150 mM NaCl, 1% TritonX-100, 1 mMPMSF, 2.5 μg/ml leupeptin, 1% aprotinin, 10 mM sodium fluoride, 1 mM sodium vanadate (Sigma, UK). 50 μg of protein were loaded onto 12% polyacrylamide gels. Phosphorylated Akt was detected using 1:1000 anti-phospho-Akt (Ser473) antibody (Cell Signalling Technology, Boston, Mass.) and total Akt1/2 protein was probed with 1:1000 anti-Akt1/2 (H136) (Santa Cruz, Santa Cruz, Calif.). Secondary antibodies conjugated to horseradish peroxidase (HRP) (GE Healthcare, UK) were used at 1:1000 dilution and visualised by enhanced chemiluminescence (GE Healthcare, UK). Actin (Sigma, UK) was used as a loading control."}, "[4]": {"test_system": "MCF-7 breast cancer cells", "experiment": "Growth rate of naïve MCF-7 cells", "format": "cell-based"}, "[5]": {"test_system": "MCF10A mammary ductal cells", "experiment": "Growth rate and Annexin V apoptosis of naïve MCF10A cells", "format": "cell-based"}, "[6]": {"test_system": "SKBR3 breast cancer cells", "experiment": "Growth rate and apoptosis of SKBR3 cells treated with Hu-r-βGBP", "format": "cell-based", "settings": "Hu-r-βGBP 15 or 30 nM added at hour 3 after seeding", "experimental": "as §4, §5, §6, §7, §8, §9"}, "ERK": {"test_system": "ERK", "format": "cell-based"}, "[7]": {"settings": "MCF10A, MCF10A^V12Ras and MCF10A^CTx cells"}}, "note": "Read-outs that look alike come from different tables or passages of the source."}
{"substance": "GAL-1: homodimers formed from βGBP, a complex with lectin-like characteristics", "values": [{"measurement": "threshold concentration for apoptotic activity", "setting": "activated T cells", "result": 4, "unit": "µg/mL"}]}
{"substance": "βGBP: Human recombinant β-galactoside binding protein expressed in E. coli; negative cell cycle regulator, anti-proliferative cytokine", "values": [{"measurement": "concentration effective in inducing apoptosis", "setting": "SW480 colon cancer cells; SW480 cells, Hu-r-βGBP added 3 hrs after seeding, 5 days", "result": "1 to 2", "unit": "nM"}, {"measurement": "effective concentration relative to other cancer cell lines (times lower)", "setting": "SW480 colon cancer cells; SW480 colon cancer cells versus other cancer cell lines", "result": "15 to 30", "unit": "times"}, {"measurement": "effective dose in cell culture for pro-apoptotic responses", "setting": "[1]", "result": "15 to 30", "unit": "nM"}, {"measurement": "concentration effective in inducing apoptosis", "setting": "SW620 colon cancer cells; SW620 cells, Hu-r-βGBP added 3 hrs after seeding, 5 days", "result": "1 to 2", "unit": "nM"}, {"measurement": "effective concentration relative to other cancer cell lines (times lower)", "setting": "SW620 colon cancer cells; SW620 colon cancer cells versus other cancer cell lines", "result": "15 to 30", "unit": "times"}, {"measurement": "appearance of tumours", "setting": "[2]", "result": "totally prevent the appearance of tumours"}, {"measurement": "cell death in response to βGBP", "setting": "MCF-7^CTx cells", "result": "succumbed to total death ahead of the naive counterparts"}, {"measurement": "response of cell proliferation to βGBP", "setting": "MCF10A^CTx cells", "result": "abrupt cell death after 2-3 cell replication cycles"}, {"measurement": "response of cell proliferation to βGBP", "setting": "MCF10A^V12Ras cells", "result": "abrupt cell death after 2-3 cell replication cycles"}, {"measurement": "effect on cell replication and cell death", "setting": "[3]", "result": "virtually no effect on cell replication until, after 2-3 generation cycles, abrupt cell death was triggered"}, {"measurement": "concentration effective in inducing apoptosis", "setting": "LoVo colon cancer cells; LoVo cells, Hu-r-βGBP added 3 hrs after seeding, 5 days", "result": "1 to 2", "unit": "nM"}, {"measurement": "effective concentration relative to other cancer cell lines (times lower)", "setting": "LoVo colon cancer cells; LoVo colon cancer cells versus other cancer cell lines", "result": "15 to 30", "unit": "times"}, {"measurement": "PI3K activity", "setting": "class IA PI3K; BT474 and SKBR3 cells, already present at hour six, maintained throughout observation", "result": "downregulation of PI3K activity"}, {"measurement": "PI3K activity", "setting": "class IA PI3K; MCF10A, MCF10A^V12Ras and MCF10A^CTx cells, delay from 6 to 24 hours with V12 Ras", "result": "brought down and maintained PI3K activity below basal levels"}, {"measurement": "decrease of PI3K activity below basal levels at which akt gene expression was negated", "setting": "class IA PI3K; MCF-7^CTx cells, 20 nM Hu-r-βGBP, 10 nM wortmannin or 20 nM LY294002 added at hour 3 from seeding", "result": "~35", "unit": "%"}, {"measurement": "akt mRNA level", "setting": "akt mRNA; BT474 and SKBR3 cells, within one day from addition", "result": "virtually undetectable"}, {"measurement": "akt mRNA level", "setting": "akt mRNA; [7]", "result": "virtual absence of akt mRNA"}, {"measurement": "akt gene expression", "setting": "akt mRNA; MCF-7^CTx cells, 20 nM Hu-r-βGBP", "result": "negated"}, {"measurement": "phosphorylated Akt and Akt protein", "setting": "Akt; BT474 and SKBR3 cells, preceded the apoptotic process", "result": "loss of phosphorylated Akt, and loss of Akt protein"}, {"measurement": "Akt function (phosphorylated Akt and total Akt protein)", "setting": "Akt; [7]", "result": "loss of Akt function"}, {"measurement": "effect on cell growth", "setting": "[4]; naïve MCF-7 cells, 20 nM Hu-r-βGBP added at hour 3", "result": "growth inhibitory effect"}, {"measurement": "response of cell proliferation to βGBP", "setting": "[5]; naïve MCF10A cells, Hu-r-βGBP 15 or 30 nM added at hour 3", "result": "minor effect"}, {"measurement": "apoptosis after inhibition of PI3K activity and loss of akt gene function", "setting": "[5]; naïve normal-like MCF10A cells, 30 nM Hu-r-βGBP, Annexin V at day three", "result": "did not lead to apoptosis"}, {"measurement": "effect on cell replication and cell death", "setting": "[6]", "result": "virtually no effect on cell replication until, after 2-3 generation cycles, abrupt cell death was triggered"}, {"measurement": "ERK phosphorylation", "setting": "ERK", "result": "no changes in ERK phosphorylation"}]}
{"substance": "cholera toxin [reference compound]", "values": [{"measurement": "akt gene expression", "setting": "akt mRNA", "result": "accentuated akt gene expression"}, {"measurement": "akt mRNA levels", "setting": "akt mRNA", "result": "more markedly expressed"}, {"measurement": "cell proliferation", "setting": "[4]", "result": "accelerated cell proliferation"}, {"measurement": "cell proliferation", "setting": "[5]", "result": "boosted"}, {"measurement": "active ERK levels", "setting": "ERK", "result": "raised active ERK levels"}]}
